Source: patent US20200289523A1, “FIXED DOSED PHARMACEUTICAL COMPOSITION COMPRISING AMIODIPINE, CANDESARTAN CILEXETIL AND HYDROCHLOROTHIAZIDE FOR THE TREATMENT OF HYPERTENSION” (MIDAS PHARMA GMBH, priority 2016, published 2020)

Key:
[1] = Solubility in various standard dissolution media (FIG. 1); format: physicochemical; details: at low pH-values
[2] = In-vitro dissolution of tablets (Ph. Eur. 2.9.3/USP <711>); format: physicochemical; details: on changes of the composition of the formulation
Method: The in-vitro dissolution of tablets was analyzed according to Ph.

Compound	solubility [1]	dissolution profile of Hydrochlorothiazide [2]
CCOc1nc2cccc(C(=O)OC(C)OC(=O)OC3CCCCC3)c2n1Cc1ccc(-c2ccccc2-c2nnn[nH]2)cc1 (centres unmarked) [Candesartan cilexetil]	barely soluble	–
NS(=O)(=O)c1cc2c(cc1Cl)NCNS2(=O)=O [Hydrochlorothiazide, 6-chloro-1,1-dioxo-3,4-dihydro-2H-1,2,4-benzothiadiazine-7-sulfonamide]	–	not influenced by changes of the composition
